Test results taken from patent publication US20250154686A1, “COMPOUND LIBRARY” (CHUGAI SEIYAKU KABUSHIKI KAISHA, priority 2021, published 2025).

Biological target: T1, Bcl-2 protein (Recombinant Human Bcl-2 Protein) (Homo sapiens, UniProt P10415)
T1 construct: purchased Novus Biologicals NBP2-34889
Test: AS-MS evaluation of binding of the Example 4 mixture library (1200 compounds/well) to Bcl-2, ASMS ratio (%)
Method in brief: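 Recombinant human Bcl-2 at 20 μM final was exposed to a 1200-member compound pool (20 nM per compound) in pH 7.4 Tris-HCl buffer containing NaCl, Tween-20 and DTT. After 1 h at 23 °C, protein–ligand complexes passed SEC spin columns; LC/MS signals were compared with protein-free standard and blank samples to give ASMS ratio.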

[1] = replicate n = 1, mixture library, value belongs to the MS peak assigned to the compound
[2] = replicate n = 2, mixture library, value belongs to the MS peak assigned to the compound
[3] = AS-MS, Example 4 mixture library, Bcl-2, replicate n = 1
[4] = AS-MS, Example 4 mixture library, Bcl-2, replicate n = 2
[5] = AS-MS, mixture of 1200 compounds/well, Bcl-2 protein, replicate n = 1
[6] = AS-MS, mixture of 1200 compounds/well, Bcl-2 protein, replicate n = 2

T1 sequence (P10415 whole entry): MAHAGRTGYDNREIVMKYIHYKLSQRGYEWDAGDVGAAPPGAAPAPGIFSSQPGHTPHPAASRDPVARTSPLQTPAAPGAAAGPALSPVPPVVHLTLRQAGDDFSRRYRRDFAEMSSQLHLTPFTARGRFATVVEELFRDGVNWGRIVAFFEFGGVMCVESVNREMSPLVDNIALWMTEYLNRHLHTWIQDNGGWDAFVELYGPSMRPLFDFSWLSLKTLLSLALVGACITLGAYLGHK

Compound	ASMS ratio (%) n = 1 [3] [%]	ASMS ratio (%) n = 2 [4] [%]	also measured
CCOc1cccc(-c2ccc(CN3CCN(c4ccc(C(=O)N(CC)CC)nn4)CC3)cc2F)c1 [Compound B4J077-01, 6-[4-[[4-(3-Ethoxyphenyl)-3-fluorophenyl]methyl]piperazin-1-yl]-N,N-diethylpyridazine-3-carboxamide]	–	–	ASMS ratio (%) n = 2 (Example 4 mixture library, 1200 compounds/well, Bcl-2 protein, replicate n = 2, value belongs to the MS peak assignable to the compound): 5.5%
CCOc1cccc(-c2ccc(CN3CCN(c4ccc(C(=O)NS(=O)(=O)C(C)(C)C)cc4)CC3)c(OC)c2)c1 [Compound B2L053-01]	–	–	ASMS ratio (%) n = 1 [1]: 0.0%; ASMS ratio (%) n = 2 [2]: 0.0%
CCOc1cccc(-c2cc(CN3CCN(c4ccc(C(=O)NS(C)(=O)=O)cc4)CC3)cc(OC(C)C)c2)c1 [Compound B2I057-01, 4-[4-[[3-(3-Ethoxyphenyl)-5-propan-2-yloxyphenyl]methyl]piperazin-1-yl]-N-methylsulfonylbenzamide]	–	–	ASMS ratio (%) n = 1 [1]: 0.0%; ASMS ratio (%) n = 2 [2]: 0.0%
4-[4-[[4-(3-Ethoxyphenyl)-3-fluorophenyl]methyl]piperazin-1-yl]-N-propylbenzamide [Compound B1M079-01]	–	–	ASMS ratio (%) n = 1 [5]: 8.1%
CCCNC(=O)c1ccc(N2CCN(C(=O)c3cc(-c4cccc(OCC)c4)cc(C(F)(F)F)c3)CC2)nn1 [Compound B1M017-01]	–	–	ASMS ratio (%) n = 1 [5]: −0.1%; ASMS ratio (%) n = 2 [6]: 0.3%
CCOc1cccc(-c2cc(CN3CCN(c4ccc(C(=O)NS(C)(=O)=O)nn4)CC3)cc(OCC)c2)c1 [Compound B2I081-01, 6-[4-[[3-Ethoxy-5-(3-ethoxyphenyl)phenyl]methyl]piperazin-1-yl]-N-methylsulfonylpyridazine-3-carboxamide]	–	–	ASMS ratio (%) n = 1 [1]: 0.0%; ASMS ratio (%) n = 2 [2]: 0.0%
CCOc1cccc(-c2cc(CN3CCN(c4ccc(C(=O)NCC(F)(F)F)cc4)CC3)cc(OC(F)(F)F)c2)c1 [Compound B1K063-01, 4-[4-[[3-(3-Ethoxyphenyl)-5-(trifluoromethoxy)phenyl]methyl]piperazin-1-yl]-N-(2,2,2-trifluoroethyl)benzamide]	–	–	ASMS ratio (%) n = 1 [5]: 3.9%; ASMS ratio (%) n = 2 [6]: 0.4%
CCOc1cccc(C#Cc2cncc(C(=O)N3CCN(c4ccc(C(=O)NS(=O)(=O)C(C)(C)C)cc4)CC3)c2)c1 [Compound B2L031-01, N-tert-Butylsulfonyl-4-[4-[5-[2-(3-ethoxyphenyl)ethynyl]pyridine-3-carbonyl]piperazin-1-yl]benzamide]	–	–	ASMS ratio (%) n = 1 [1]: 0.0%; ASMS ratio (%) n = 2 [2]: 0.0%
CCCNC(=O)c1ccc(N2CCN(Cc3ccc(-c4cccc(OCC)c4)c(F)c3)CC2)nn1 [Compound B1M077-01]	–	–	ASMS ratio (%) n = 1 [5]: −0.7%; ASMS ratio (%) n = 2 [6]: 3.1%
CCOc1cccc(-c2ccccc2CCC(=O)N2CCN(c3ccc(C(=O)NS(=O)(=O)C(C)(C)C)nn3)CC2)c1 [Compound B2L011-01]	–	–	ASMS ratio (%) n = 1 [1]: 0.0%; ASMS ratio (%) n = 2 [2]: 0.0%
CCOc1cncc(C#Cc2cncc(C(=O)N3CCN(c4ccc(C(=O)NS(=O)(=O)C(C)(C)C)nn4)CC3)c2)c1 [Compound B2L010-01]	–	–	ASMS ratio (%) n = 1 [1]: 0.0%; ASMS ratio (%) n = 2 [2]: 0.0%
CCCNC(=O)c1ccc(N2CCN(C(=O)c3ccc(-c4cncc(OCC)c4)c4ccccc34)CC2)nn1 [Compound B1M014-01]	–	–	ASMS ratio (%) n = 1 [5]: 4.1%; ASMS ratio (%) n = 2 [6]: 0.4%

Second part, led by results:

ASMS ratio (%) n = 1 [3] [%]	ASMS ratio (%) n = 2 [4] [%]	Compound	also measured
0.0	0.0	CCOc1cncc(-c2cc(CN3CCN(c4ccc(C(=O)NS(=O)(=O)CCC(F)(F)F)cc4)CC3)cc(C(F)(F)F)c2)c1 [Compound B2N062-01, 4-[4-[[3-(5-Ethoxypyridin-3-yl)-5-(trifluoromethyl)phenyl]methyl]piperazin-1-yl]-N-(3,3,3-trifluoropropylsulfonyl)benzamide]	–
0.0	0.0	CCOc1cncc(-c2csc(C(=O)N3CCN(c4ccc(C(=O)NS(=O)(=O)c5ccc(NCCSc6ccccc6)c(C(F)(F)F)c5)nn4)CC3)c2)c1 [Compound B2R002-01, 6-[4-[4-(5-Ethoxypyridin-3-yl)thiophene-2-carbonyl]piperazin-1-yl]-N-[4-(2-phenylsulfanylethylamino)-3-(trifluoromethyl)phenyl]sulfonylpyridazine-3-carboxamide]	–
0.0	0.0	CCOc1cccc(-c2cc(OC)c(CN3CCN(c4ccc(C(=O)NS(=O)(=O)c5ccc(NCCSc6ccccc6)c(C(F)(F)F)c5)cc4)CC3)c(OC)c2)c1 [Compound B2R059-01, 4-[4-[[4-(3-Ethoxyphenyl)-2,6-dimethoxyphenyl]methyl]piperazin-1-yl]-N-[4-(2-phenylsulfanylethylamino)-3-(trifluoromethyl)phenyl]sulfonylbenzamide]	–
0.0	0.0	CCOc1cncc(-c2ccc(CN3CCN(c4ccc(C(=O)NS(=O)(=O)CCC(F)(F)F)cc4)CC3)c3ccccc23)c1 [Compound B2N066-01, 4-[4-[[4-(5-Ethoxypyridin-3-yl)naphthalen-1-yl]methyl]piperazin-1-yl]-N-(3,3,3-trifluoropropylsulfonyl)benzamide]	–
0.0	0.0	CCOc1cncc(-c2csc(CN3CCN(c4ccc(C(=O)NS(=O)(=O)c5ccc(NCCSc6ccccc6)c(C(F)(F)F)c5)cc4)CC3)c2)c1 [Compound B2R068-01, 4-[4-[[4-(5-Ethoxypyridin-3-yl)thiophen-2-yl]methyl]piperazin-1-yl]-N-[4-(2-phenylsulfanylethylamino)-3-(trifluoromethyl)phenyl]sulfonylbenzamide]	–
0.0	0.1	CCOc1cncc(-c2ccccc2CN2CCN(c3ccc(C(=O)NS(=O)(=O)CCC(F)(F)F)nn3)CC2)c1 [Compound B2N072-01, 6-[4-[[2-(5-Ethoxypyridin-3-yl)phenyl]methyl]piperazin-1-yl]-N-(3,3,3-trifluoropropylsulfonyl)pyridazine-3-carboxamide]	–
18.6	15.1	CCOc1cncc(-c2ccc(C(=O)N3CCN(c4ccc(C(=O)NS(=O)(=O)c5ccc(NCCSc6ccccc6)c(C(F)(F)F)c5)nn4)CC3)c3ccccc23)c1 [Compound B2R014-01, 6-[4-[4-(5-Ethoxypyridin-3-yl)naphthalene-1-carbonyl]piperazin-1-yl]-N-[4-(2-phenylsulfanylethylamino)-3-(trifluoromethyl)phenyl]sulfonylpyridazine-3-carboxamide]	–
0.0	0.0	CCOc1cccc(-c2cc(C(=O)N3CCN(c4ccc(C(=O)NS(=O)(=O)CCC(F)(F)F)cc4)CC3)cc(C(C)(C)C)c2)c1 [Compound B2N037-01, 4-[4-[3-tert-Butyl-5-(3-ethoxyphenyl)benzoyl]piperazin-1-yl]-N-(3,3,3-trifluoropropylsulfonyl)benzamide]	–
–	0.0	CCOc1cccc(C#Cc2ccccc2C(=O)N2CCN(c3ccc(C(=O)NS(=O)(=O)c4ccc(NCCSc5ccccc5)c(C(F)(F)F)c4)cc3)CC2)c1 [Compound B2R029-01, 4-[4-[2-[2-(3-Ethoxyphenyl)ethynyl]benzoyl]piperazin-1-yl]-N-[4-(2-phenylsulfanylethylamino)-3-(trifluoromethyl)phenyl]sulfonylbenzamide]	–
−0.3	−3.8	CCOc1cccc(-c2cc(CN3CCN(c4ccc(C(=O)NS(=O)(=O)CCC(F)(F)F)cc4)CC3)cc(OC(F)(F)F)c2)c1 [Compound B2N063-01, 4-[4-[[3-(3-Ethoxyphenyl)-5-(trifluoromethoxy)phenyl]methyl]piperazin-1-yl]-N-(3,3,3-trifluoropropylsulfonyl)benzamide]	–
0.0	0.1	CCOc1cccc(-c2ccccc2CN2CCN(c3ccc(C(=O)NS(=O)(=O)CCC(F)(F)F)cc3)CC2)c1 [Compound B2N045-01, 4-[4-[[2-(3-Ethoxyphenyl)phenyl]methyl]piperazin-1-yl]-N-(3,3,3-trifluoropropylsulfonyl)benzamide]	–
0.0	0.0	CCOc1cccc(-c2csc(C(=O)N3CCN(c4ccc(C(=O)NS(=O)(=O)CCC(F)(F)F)cc4)CC3)c2)c1 [Compound B2N023-01, 4-[4-[4-(3-Ethoxyphenyl)thiophene-2-carbonyl]piperazin-1-yl]-N-(3,3,3-trifluoropropylsulfonyl)benzamide]	–
0.0	4.8	CCOc1cccc(C#Cc2cncc(C(=O)N3CCN(c4ccc(C(=O)NS(=O)(=O)c5ccc(NCCSc6ccccc6)c(C(F)(F)F)c5)cc4)CC3)c2)c1 [Compound B2R031-01, 4-[4-[5-[2-(3-Ethoxyphenyl)ethynyl]pyridine-3-carbonyl]piperazin-1-yl]-N-[4-(2-phenylsulfanylethylamino)-3-(trifluoromethyl)phenyl]sulfonylbenzamide]	–
3.2	−0.8	CCOc1cncc(-c2ccc(C(=O)N3CCN(c4ccc(C(=O)NS(=O)(=O)c5ccc(NCCSc6ccccc6)c(C(F)(F)F)c5)cc4)CC3)c3ccccc23)c1 [Compound B2R036-01, 4-[4-[4-(5-Ethoxypyridin-3-yl)naphthalene-1-carbonyl]piperazin-1-yl]-N-[4-(2-phenylsulfanylethylamino)-3-(trifluoromethyl)phenyl]sulfonylbenzamide]	–
−1.8	−1.5	CCOc1cccc(C#Cc2ccccc2CN2CCN(c3ccc(C(=O)NS(=O)(=O)CCC(F)(F)F)cc3)CC2)c1 [Compound B2N069-01, 4-[4-[[2-[2-(3-Ethoxyphenyl)ethynyl]phenyl]methyl]piperazin-1-yl]-N-(3,3,3-trifluoropropylsulfonyl)benzamide]	–
